In patent US11089783B2, “2-(het)aryl-substituted fused heterocycle derivatives as pesticides” (Bayer Aktiengesellschaft, priority 2017, dated 2021) one finds Emax data, which are given here for one compound.

What all share (type): in vivo
In one test the test system is Meloidogyne incognita. In words: Meloidogyne incognita drench test (MELGIN D). To be noted: soil, 504 h, 21 dat, read-out: % efficacy. The procedure: [table] To produce an appropriate active ingredient formulation, 1 part by weight of active ingredient is mixed with the specified amounts of solvent and emulsifier and the concentrate is diluted to the desired concentration with water, it being necessary to take into account the volume of soil into which drenching is effected. It should be ensured that a concentration of 20 ppm of emulsifier in the soil is not exceeded. For production of further test concentrations, the mixture is diluted with water. Pots filled with soil (loamy sand) are drenched with the active ingredient solution. An egg/larvae suspension of the southern root-knot nematode (Meloidogyne incognita) is added, and lettuce seeds are scattered over the soil surface and covered with quartz sand. The lettuce seeds germinate and the seedlings develop. The root-knots develop on the roots. After the desired time, the nematicidal effect is determined with reference to the root-knot formation in %. 100% means that no root-knots were found; 0% means that the number of root-knots on the treated plants corresponds to that on the untreated control.

The next test has as its system Tetranychus urticae. Put plainly: Tetranychus urticae spray test, OP-resistant (TETRUR). The following applies: Tetranychus urticae, 144 h, TETRUR, 6 dat, read-out: % efficacy. The procedure:
[table] To produce a suitable active ingredient formulation, 1 part by weight of active ingredient is dissolved with the specified parts by weight of solvent and made up to the desired concentration with water containing an emulsifier concentration of 1000 ppm. To produce further test concentrations, the formulation is diluted with emulsifier-containing water. Discs of bean leaves (Phaseolus vulgaris) infested with all stages of the greenhouse red spider mite (Tetranychus urticae) are sprayed with an active ingredient formulation of the desired concentration. After 6 days, the efficacy in % is determined. 100% means that all the spider mites have been killed; 0% means that no spider mites have been killed.

In a further test the test system is Aphis gossypii. Put plainly: Aphis gossypii spray test (APHIGO), cotton plants. To be noted: Aphis gossypii, 144 h, 4 ppm, 6 dat, read-out: % efficacy. The essentials:
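Cotton plants (Gossypium hirsutum) heavily infested with cotton aphids were sprayed with the active ingredient formulated in emulsifier-containing water (1000 ppm emulsifier), with ammonium salt or penetrant added at 1000 ppm where required. After the set time, percent kill was determined, where 100% means all aphids dead.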

Another test has as its system Phaedon cochleariae. Put plainly: Phaedon cochleariae spray test (PHAECO S), cabbage leaves. To be noted: Phaedon cochleariae, 168 h, 7 dat, read-out: % efficacy. As for the experimental part: [table] To produce an appropriate active ingredient formulation, 1 part by weight of active ingredient is dissolved with the specified parts by weight of solvent and made up with water containing an emulsifier concentration of 1000 ppm until the desired concentration is attained. To produce further test concentrations, the mixture is diluted with emulsifier-containing water. If addition of ammonium salts or/and penetrants is required, these are each added to the preparation solution in a concentration of 1000 ppm. Cabbage leaves (Brassica oleracea) are sprayed with an active ingredient formulation of the desired concentration and populated with larvae of the mustard beetle (Phaedon cochleariae). After the desired time, the kill in % is determined. 100% means that all beetle larvae have been killed; 0% means that no beetle larvae have been killed.

Another test relates to Nezara viridula. Put plainly: Nezara viridula spray test (NEZARA / NEZAVI). The following applies: Nezara viridula, 96 h, 4 g/ha, 4 dat, read-out: % efficacy. The essentials:
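Barley plants infested with Nezara viridula larvae were sprayed with active ingredient in solvent/emulsifier water (1000 ppm emulsifier; ammonium salt or penetrant at 1000 ppm if added). Efficacy scored as % mortality after the set time (100% = all bugs killed).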

The next test has as its system Diabrotica balteata. Put plainly: Diabrotica balteata drench test (DIABBA). To be noted: soil, 192 h, 8 dat, read-out: % efficacy. As for the experimental part:
[table] To produce an appropriate active ingredient formulation, 1 part by weight of active ingredient is mixed with the specified amounts of solvent and emulsifier and the concentrate is diluted to the desired concentration with water, it being necessary to take into account the volume of soil into which drenching is effected. It should be ensured that a concentration of 40 ppm of emulsifier in the soil is not exceeded. For production of further test concentrations, the mixture is diluted with water. 5 maize kernels in each case are sown into soil-filled pots (Zea mays) and, the next day, drenched with the active ingredient formulation of the desired concentration. After one day, about 25 L2 larvae of the banded cucumber beetle (Diabrotica balteata) were added. After 8 days, the efficacy in % is determined. 100% means that all 5 plants have germinated and grown; 0% means that no plant has emerged.

For `CCS(=O)(=O)c1ccc(NC(=O)NC)nc1-c1nc2cc(C(F)(F)F)nnc2n1C` [reference compound], in the test with Meloidogyne incognita (1 ppm), the Emax at 1 ppm came to 0%. Also, the Emax at 2 ppm with Meloidogyne incognita (2 ppm) amounted to 50%. Also, the Emax at 20 g/ha in the test with Tetranychus urticae (20 g/ha) came to 0%. For the same compound, the Emax at 100 g/ha in the test with Tetranychus urticae (100 g/ha) worked out at 0%. Further, the Emax at 4 ppm in the test on Aphis gossypii came out at 25%; with Phaedon cochleariae (4 ppm), 0%. For the same compound, the Emax at 20 ppm with Phaedon cochleariae (20 ppm) and in the test on Diabrotica balteata was 0% throughout. In addition, the Emax at 4 g/ha in the test with Nezara viridula amounted to 0%.
